Assay [1] concerns the target T1, TGF-β1 (Rattus norvegicus, UniProt P17246).
T1 construct: from tissue; host or cells: cornea of Long-Evans rats
As to the kind of experiment: Corneal fibrosis and haze after 1 N NaOH damage, topical eye drops, photographs analysed with ImageJ. Format: in vivo, Long-Evans rats. The source says: Male Long-Evans rats aged 10 weeks were used, divided into 5 groups: • Group 1: 12 rats, 6 treated with dexamethasone and 6 treated with mitomycin C • Group 2: 12 rats, 6 treated with p17 of the first formulation (see section 6.1.2.b) and 6 treated with p144 of the first formulation (see section 6.1.2.b) • Group 3: 12 rats, 6 treated with p17 of the second formulation (see section 6.1.2.b) and 6 treated with p144 of the second formulation (see section 6.1.2.b) • Group 4: 12 rats, 6 treated with p17 of the third formulation (see section 6.1.2.b) and 6 treated with p144 of the third formulation (see section 6.1.2.b) • Group 5: 12 rats, 6 treated with p17 of the fourth formulation (see section 6.1.2.b) and 6 treated with p144 of the fourth formulation (see section 6.1.2.b) • Group 6: 12 rats, 6 treated with p17 of the fifth formulation (see section 6.1.2.b) and 6 treated with p144 of the fifth formulation (see section 6.1.2.b)
To perform the damage in the cornea, the animals were anesthetized with isoflurane and a 5 mm Whatman paper disc impregnated in 1 N NaOH for 30 seconds was applied to them in the central part of the eye. After the damage, they were washed with abundant physiological saline serum and an antibiotic ointment was applied to them to prevent possible infections in the affected area.
After conducting several in vivo studies with the previously described groups of animals, it could be concluded that the chemical damage occurring after the application of NaOH for 30 seconds caused an excessive lesion for the study which was to be conducted, therefore it was decided to conduct new experiments reducing the time to 15 seconds.
It was randomly established that the left eye of each animal would act as a control and that the right eye would be the treated eye, such that the same animals acts as a control in addition to being treated. It must be pointed out that all the animals received antibiotic treatment in both eyes daily only during the first week of the study for the purposes of avoiding microbial keratitis.
Starting from 0.15% sodium hyaluronate (Hyabak 10 mL, Thea) without preservatives: • p144: 20 mg were dissolved in 5 ml of eye drops, 40 μl of saturated concentrated NaOH were incorporated, stirring and adding in portions of 5 μl. It was sonicated until solubilization. To adjust the pH, 500 μl of 1M Hepes were added, such that the pH changed from 10.5 to 7 • p144 control: 40 μl of saturated NaOH and 500 μl of 1 M HEPES (final concentration of HEPES 50 mM) • p17: 20 mg were dissolved in 5 ml of the eye drops, it was sonicated until complete solubilization and it was incorporated to the vial with a 10 ml syringe and a blue needle to perforate the filter of the contained (final concentration 2 mg/ml) • p17 control: non-manipulated eye drops • Note: The formulations were maintained at 4° C. throughout the study.
The administration of the treatment was initiated twenty-four hours after the damage. After that time a follow-up of the damage was performed, which consisted of taking photographs at days 0, 7, 14, 21, 28 and 35. To take the photographs the animals were anesthetized with isoflurane. Photographs were taken of both the control eye (left) and of the treated eye (right) with and without fluorescein. The photographs with fluorescein allowed to observe the evolution of the epithelial closure of the generated lesion, whereas the photographs without fluorescein show the evolution of the haze of the lesioned area. […]

The target in assay [2] is T2, TGF-β1 (Homo sapiens, UniProt P01137). Put plainly: Immunofluorescence of p-Smad2 translocation to the nucleus in rabbit corneal fibroblasts. Format: cell-based. On the set-up: host or cells: added to a primary culture of rabbit corneal fibroblasts. The following applies: TGF-β1 treated rabbit corneal fibroblasts. As for the experimental part:
(§1) Therefore, Western Blot and immunofluorescence studies were conducted to determine, from cells extracted from the in vivo studies, the signaling pathway used by the peptides administered topically. It should be emphasized that said studies were conducted on fibroblasts from rabbit cornea and not from rat cornea. This decision was made due to the difficulty entailed in isolating fibroblasts from rodent eyes.

Assay [3] concerns the target T2, TGF-β1. Put plainly: Western Blot of p-Smad2, Smad2/3 and Smad7 in primary culture of rabbit corneal fibroblasts. Format: cell-based. On the set-up: host or cells: added to a primary culture of rabbit corneal fibroblasts. Here is the method: as §1
Since the scientific literature repeatedly describes the TGF-β1 signaling pathways, the decision was made to go into depth in such pathways by means of the techniques described in the methodology section. Said pathways involve the study of the Smad protein family, specifically the study of the isoforms Smad2, 2/3 and 7.
To that end, protein extracts obtained from the primary culture of rabbit fibroblasts were treated with TGF-β1 at concentrations of 0, 3 and 5 ng/ml and, 50 and 200 μg/ml of peptide p17 and p144.

The target of assay [4] is T3, TGF-β1 (Mus musculus, UniProt P04202).
T3 construct: from tissue; host or cells: liver of Balb/C mice (CCl4 model); lung of C57BL/6 mice (bleomycin model)
Put plainly: Model of acute liver damage induced by CCl4, type I collagen mRNA by real time PCR. The class given is in vivo, mice. Here is the method: Acute liver damage generates a cascade of effects and physiological responses, including elevations in the concentrations of TGF-β1. This elevation is responsible for the expression of the type I collagen gene, among others. In this model of acute liver damage, female Balb/C mice weighing 25 to 30 g, were orally administered a dose of 2 μl of CCl4 (per gram of body weight) dissolved in an equivalent volume of corn oil (volumetric ratio of 1:1). The control group received an equivalent volume of corn oil only, and the treated groups received (following the single oral administration of CCl4 in corn oil) 50 μg of peptide in 500 μl of 1% physiological saline solution in DMSO (dimethyl sulfoxide) every 24 h. After 72 hours all animals were sacrificed, and the liver samples were processed. To evaluate mRNA expression, liver tissue was frozen in liquid nitrogen and stored at −80° C. until further use. Other liver tissue samples were stored in OCT® or Tissue-Tek® (Sakura Finetek B.V.) and processed in the same way as the samples used for mRNA studies. Other liver samples were fixed in 10% buffered formalin solution, embedded in paraffin and processed for their histological evaluation. The amount of mRNA encoding type I collagen was quantified in all groups using a quantitative polymerase chain reaction (PCR) technique. […] The capacity of the testing peptides to block the acute damage, as assessed by measuring the levels of induced type I collagen mRNA was quantified by real time PCR. […] The peptides tested were obtained by conventional solid peptide synthesis procedures (Merrifield R B. J Am Chem Soc 1963; 85:2149-2154; Atherton E et al. J Chem Soc Perkin Trans 1981; 1:538-546).
In general terms: Real-time PCR tracks product formation cycle by cycle.

[5] abbreviates: primary culture, TGF-β1 and peptide.
[6] abbreviates: fifth formulation eye drops, treated right eye vs control left eye.

Consider 2 molecules from US8158589B2, “Peptides with the capacity to bind to transforming growth factor β1 (TGF-β1)” (Proyecto Biomedicine Cima, S.L., priority 2003, dated 2012).

Ends that are not written are not given here.

T1 sequence (P17246 279-390 limits assumed): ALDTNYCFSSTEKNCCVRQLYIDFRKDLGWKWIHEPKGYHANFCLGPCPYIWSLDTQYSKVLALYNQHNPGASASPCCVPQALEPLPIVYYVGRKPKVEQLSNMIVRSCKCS
T2 sequence (P01137 279-390 limits assumed, species assumed): as the sequence (P17246 279-390 limits assumed) above, with S75A counted along it
T3 sequence (P04202 279-390 limits assumed): as the sequence (P17246 279-390 limits assumed) above

In the case of `CO[C@@]12[C@H](COC(N)=O)C3=C(C(=O)C(C)=C(N)C3=O)N1C[C@@H]1N[C@@H]12` [mitomycin C], in assay [1] (first experiment, Group 1), the “clinical efficacy in the treatment of corneal fibrosis” value is on record as “correspond to those described in the scientific literature”.
On to TSLDASIIWAMMQN [P144], for which the “translocation of p-Smad2 to the nucleus” value in assay [2] was “inhibited”. Also, the “expression of p-Smad2” value in assay [3] (peptide 50 μg/ml) is reported as “slight inhibition”. The “expression of p-Smad2” value in assay [3] (peptide 200 μg/ml) is listed as “reaching the values of the controls”. In assay [3] (setting [5]), the “expression of Smad 2/3” value is “not affected” and the “expression of Smad 7” value is given as “not modified”. Moreover, in assay [1] (setting [6]), the corneal haze result is listed as “clear decrease” and the “epithelial closure (fluorescein)” value is listed as “clear decrease”. The “% Inhibition of type I collagen mRNA induction (in vivo TGF-β1 biological activity)” value in assay [4] (Balb/C mice, oral CCl4, 50 μg of peptide every 24 h, sacrifice after 72 hours) is −3.51 ± 36%. In assay [4] (acute liver damage, type I collagen mRNA), the “inhibition of the biological activity of TGF-β1 in vivo (in words)” value is listed as “does not show any activity”.
